From patent publication US7259000B2, “Polynucleotides encoding chimeric chemokine receptors” (Bristol-Myers Squibb Company, priority 2003, dated 2007)
“Also recorded” adds a separate entry of the source.

Tests used:
CCR3/2 chimera = molecular target: T1, CCR3/2 chimera (Homo sapiens, UniProt P51677); assay: 125I-eotaxin binding assay on CHO CCR3/2 clone 5.5 cells
T1 construct: The total length of the CCR3/2 chimeric molecule described herein is 356 amino acids; CCR2B cytoplasmic tail (fusion partner replacing the CCR3 C terminus); expressed in transfected cells
T1 sequence (P51677 with tags, fused parts or gaps): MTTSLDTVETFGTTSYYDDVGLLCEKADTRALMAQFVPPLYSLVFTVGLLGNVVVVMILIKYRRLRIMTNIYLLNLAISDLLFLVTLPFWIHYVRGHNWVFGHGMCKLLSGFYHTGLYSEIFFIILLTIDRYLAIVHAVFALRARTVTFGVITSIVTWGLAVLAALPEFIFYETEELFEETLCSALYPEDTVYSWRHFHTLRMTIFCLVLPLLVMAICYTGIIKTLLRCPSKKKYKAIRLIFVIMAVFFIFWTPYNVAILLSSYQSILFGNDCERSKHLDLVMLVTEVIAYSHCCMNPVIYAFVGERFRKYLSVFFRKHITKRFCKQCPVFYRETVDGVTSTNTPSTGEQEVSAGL
Protocol: (§1) In order to compare the ability of cells expressing chimeric human CCR3/2 molecules to that of cells expressing endogenous human CCR3 to bind eotaxin, a binding assay was performed. Depending upon the questions being asked, the cells in question were either human or mouse eosinophils, CHO-K1 cells expressing recombinant CCR3 or CCR3/2, parental CHO-K1 cells or other cell types. All assay steps were conducted at room temperature. Multiscreen assay plates (#MABVN1250, Millipore Inc., Marlborough, Mass.) were incubated with 100 μl/well of blocking solution (7.5 μg/ml protamine in PBS) to block non-specific binding. After 20 minutes, the blocking solution was removed and replaced with 100 μl of binding buffer, (RPMI 1640 (Life Technologies, Grand Island, N.Y.) containing 0.1% bovine serum albumin and 20 mM HEPES buffer) and incubated for at least an additional 10 minutes.
(§2) When ready to use plate(s), the following procedure was employed. Remove the binding buffer and add the following to the well types indicated:
(§3) to TOTAL binding wells add 50 μl of binding buffer;
(§4) to NON-SPECIFIC binding wells add 50 μl of unlabeled human eotaxin to 100 nM and 1000 nM final concentration (recombinant human eotaxin—#320-EO/CF, R&D Systems, Minneapolis, Minn.) in 50 μl binding buffer; […]
(§5) Binding data were analyzed using Microsoft EXCEL and then graphed using GRAPHPAD PRISMT™. […]

CCR3 = molecular target: T2, CCR3 (Homo sapiens, UniProt P51677); assay: 125I-eotaxin binding assay on human eosinophils; settings: native human eosinophils; 0.15 nM 125I-labeled human eotaxin; room temperature
T2 construct: cells expressing endogenous human CCR3; endogenous in cells; host or cells: native human eosinophils
T2 sequence (P51677 1-355): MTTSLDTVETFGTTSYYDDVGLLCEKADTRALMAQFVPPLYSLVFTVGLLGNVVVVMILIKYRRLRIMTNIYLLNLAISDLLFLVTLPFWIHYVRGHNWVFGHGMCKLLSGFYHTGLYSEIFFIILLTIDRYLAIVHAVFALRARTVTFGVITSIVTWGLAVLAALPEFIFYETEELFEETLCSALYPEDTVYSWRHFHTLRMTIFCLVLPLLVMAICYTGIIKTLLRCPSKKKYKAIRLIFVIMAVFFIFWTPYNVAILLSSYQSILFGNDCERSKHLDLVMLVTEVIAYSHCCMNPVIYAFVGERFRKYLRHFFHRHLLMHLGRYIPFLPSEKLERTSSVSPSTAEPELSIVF
Protocol: as §1, §2, §3, §4, §5

chimeric CCR3/2 receptor = molecular target: T3, chimeric CCR3/2 receptor (Homo sapiens, UniProt P51677); assay: phospho-ERK western blot after eotaxin stimulation of CHO CCR3/2 clone 5.5 cells; format: cell-based; settings: nanomolar eotaxin
T3 construct: The total length of the CCR3/2 chimeric molecule described herein is 356 amino acids; CCR2B cytoplasmic tail (fusion partner replacing the CCR3 C terminus); expressed in transfected cells
T3 sequence (P51677 with tags, fused parts or gaps): T1 sequence (P51677 with tags, fused parts or gaps)
Description: Part of the downstream signalling cascade involves the activity of kinases (proteins that add phosphate groups to specific residues in cellular proteins, thereby causing them to take on new activities and cellular roles). In the present Example, the phosphorylation of Erk (a member of a protein kinase signalling cascade) is considered to be an indication that binding of eotaxin at the cell surface is recognized by the cell signalling machinery that lies within the cytoplasm and nucleus.
Thus, the present invention further provides that a chimeric chemokine receptor (e.g., the chimeric CCR3/2 receptor) when expressed in cells is capable of downstream signalling when binding to its cognate ligand (e.g., eotaxin). Such downstream signalling involves the MAP kinase pathway, more specifically, the phosphorylation of Erk1 and Erk2 subsequent to binding of eotaxin by either CCR3 or CCR3/2.
Analysis of cell stimulation for phospho-ERK analysis by western blotting was done as previously described (Scherle et al., (1998) J. Immunol. 161(10):5681-86) with the exception that cells were specifically stimulated by exposure to eotaxin (nanomolar exposures to eotaxin listed on the bottoms of FIGS. 7A and 7B) instead of the more generic stimulant lipopolysaccharide as described in Sherle et al. (Scherle et al., (1998) J. Immunol. 161(10):5681-86).

competition with labeled eotaxin for binding (drug inhibition curve) (CCR3) | Erk phosphorylation (downstream signalling) on exposure to eotaxin (chimeric CCR3/2 receptor) | Compound | competition with labeled eotaxin for binding (drug inhibition curve) (CCR3/2 chimera; CHO CCR3/2 clone 5.5, 0.15 nM 125I-labeled human eotaxin, room temperature) | eotaxin binding (CCR3/2 chimera; CHO cells expressing human CCR3/2)
comparable | – | C[C@@H](NC(=O)Nc1cccc(-c2nnnn2C)c1)[C@@H](O)CN1CCC[C@@H](Cc2ccc(F)cc2)C1 [Compound 1, N-{(1R,2S)-3-[(3S)-3-(4-fluorobenzyl)-1-piperidinyl]-2-hydroxy-1-methylpropyl}-N′-[3-(1-methyl-1H-tetraazol-5-yl)phenyl]urea] | comparable; also recorded: compete with eotaxin for binding | –
– | able to transmit a signal | eotaxin: recombinant human eotaxin, chemokine peptide ligand of CCR3 (R&D Systems #320-EO/CF; 125I-labeled form from Perkin Elmer) | – | high levels of specific eotaxin binding; also recorded: high affinity
